Columns and labels:
C. acnes ATCC 6919 [1] = assay: Minimum inhibitory concentration (MIC) of 4-hexyl resorcinol against C. acnes growth, serial dilution in 96-well plate, visible turbidity; assay type: cell-based, Cutibacterium acnes; parameters: key: A “+” indicates growth; a “−” indicates no growth; conditions: anaerobic, 3 days, 35° C.
Method: (§1) A standard C. acnes ATCC 6919 culture is grown in Reinforced Clostridial Media (RCM) (Remel, Lenexa, Kans.). A suspension of C. acnes is adjusted to OD600=1.0 using a Spectromax M5 spectrophotometer (Molecular Devices, San Jose, Calif.) to yield a concentration of 10^8 cfu/ml. A 1:100 dilution of the standardized suspension is created to yield an inoculum concentration of 10^6 cfu/ml. Therefore, 100μl of inoculum into 100 μl of test sample yields 5×10^5 cfu/ml C. acnes within a 96-well experiment plate.
The minimum inhibitory concentration (MIC) of 4-hexyl resorcinol was determined to investigate its ability to inhibit the growth of C. acnes. All media and diluents were sterile. Aseptic techniques were used during study execution.
A C. acnes inoculum was prepared as set forth above.
A 0.1% (w/w) stock of 4-hexylresorcinol (Alfa Aesar, Tewksbury, Mass.) was made in RCM. Serial 1:2 dilutions were made in RCM across successive wells of a 96-well plate (sterile, u-bottom, untreated culture plate from Greiner Bio-one, Monroe, N.C.) to yield 10 test concentrations. After inoculation with equal volumes of C. acnes suspension, the test concentrations ranged from 0.05% through […] (v/v). Sterile RCM and 5×10^5 cfu/ml C. acnes in RCM were set up as a negative growth control and a positive growth control, respectively. Sterile 0.1% (w/w) 4-hexylresorcinol in RCM was set up as a turbidity control.
The 96-well plate was incubated anaerobically for 3 days at 35° C. The presence of visible turbidity within a challenged well was indicative of growth, while a clear well indicated no growth. The lowest concentration that inhibited C. acnes growth was determined to be the MIC. Negative growth control (not turbid) and positive growth control (turbid) results were as expected.

C. acnes ATCC 6919 [2] = assay: In vitro reduction of C. acnes by 4-hexylresorcinol with or without 440 nm blue light, colony count; assay type: cell-based, Cutibacterium acnes; conditions: for Ave. Log Reduction ± S.D., arithmetic sum (expected additive): sum of light only and 0.002% 4-hexylresorcinol only
Method: as §1
The culture is incubated in anaerobic chamber (<10 ppm O^2, 2.5-5% H^2, balance N^2 at 35±2° C.), in the dark, on an orbital shaker at 80 RPM. For test treatments including light, the prepared C. acnes culture is exposed for two, 60-minute light cycles with a 60-minute hold time between. Each light cycle is with blue light at wavelength 440 nm and 22±2 mW/cm^2 intensity. After treatments, the sample is incubated overnight (16±2 hours) in an anaerobic chamber. The sample is then recovered onto agar and incubated 5-7 days until clear colonies are visible. After growth, the remaining viable C. acnes colonies are counted; converted to cfu/ml and the log 10 reduction in number of cells is calculated (log 10 reduction=no light control sample−test sample).
A C. acnes inoculum was prepared as set forth above and in the same manner as Example 1. The solution was stored at 4° C. until time of use. The stock solution was added to RCM to produce a final concentration of 0.01% (v/v) and inoculated with 0.1 mL of the C. acnes suspension to yield 10^6 cfu/ml. The prepared culture in RCM+ALA was incubated by shaking at 80 rpm, in the dark (foil covered), and in an anaerobic chamber at 35±2° C. for 24 hours.
A 0.02% (w/v) of n-4-hexylresorcinol (Alfa Aesar, Tewksbury, Mass.) was prepared in RCM. The sample stock solution was mixed as 1:10 (v/v) with 24-hour C. acnes culture in RCM+ALA. Organism control culture was diluted 1:10 (v/v) with RCM for equivalent organism concentration.
The in vitro evaluation was conducted as follows. The prepared C. acnes culture (grown with ALA) was mixed with the test sample as described above, added to 6-well plates and then exposed to two 60-minute, 440 nm blue light (22 mW) exposures, separated by one 60-minute rest period in the dark. Two samples were tested: 4-hexylresorcinol at 0.002% (v/v) and 24-hour C. acnes culture in RCM+ALA alone. A duplicate, 6-well plate was kept un-exposed to light as a control. All plates were incubated anaerobically, overnight, in the dark (foil covered), and in an anaerobic chamber at 35±2° C.
After 24-hour incubation, samples were serial diluted and plated onto Reinforced Clostridial Agar (Remel, Lenexa, Kans.). Agar plates were incubated anaerobically at 35±2° C. for 5-7 days until bacterial colonies were well-established. Then, colonies were counted and colony forming units (CFU) per ml were calculated. Statistically significant differences are defined by unshared letter groupings.

In the case of `CCCCCCc1ccc(O)cc1O` [4-hexylresorcinol], the Growth (C. acnes ATCC 6919 [1]; concentration 1.25E^−2 % v/v) is reported as “−”, the Growth (C. acnes ATCC 6919 [1]; concentration 1.56E^−3 % v/v) is reported as “−” and the Growth (C. acnes ATCC 6919 [1]; concentration 1.95E^−4 % v/v) is reported as “+”. The Growth (C. acnes ATCC 6919 [1]; concentration 2.50E^−2 % v/v) was “−”, the Growth (C. acnes ATCC 6919 [1]; concentration 3.13E^−3 % v/v) was “−” and the Growth (C. acnes ATCC 6919 [1]; concentration 3.91E^−4 % v/v) was “+”. The Growth (C. acnes ATCC 6919 [1]; concentration 5.0E^−2 % v/v) was “−”, the Growth (C. acnes ATCC 6919 [1]; concentration 6.25E^−3 % v/v) was “−” and the Growth (C. acnes ATCC 6919 [1]; concentration 7.81E^−4 % v/v) was “+”. For the same compound, the Growth (C. acnes ATCC 6919 [1]; concentration 9.77E^−5 % v/v) was “+”, the “Ave. Log Reduction ± S.D.” value (C. acnes ATCC 6919 [2]; 0.002% (v/v) 4-hexylresorcinol plus 440 nm blue light (22 mW), two 60-minute exposures, simultaneous) was 4.84 log and the “Ave. Log Reduction ± S.D.” value (C. acnes ATCC 6919 [2]; 0.002% (v/v) 4-hexylresorcinol plus 440 nm blue light (22 mW), two 60-minute exposures, simultaneous, listed as HR) was 4.84 ± 0.40 log. The “Ave. Log Reduction ± S.D.” value (C. acnes ATCC 6919 [2]; 0.002% (v/v) 4-hexylresorcinol treatment only, no light) was 1.00 log, the “Ave. Log Reduction ± S.D.” value (C. acnes ATCC 6919 [2]; 0.002% (v/v) 4-hexylresorcinol treatment only, no light, listed as HR) was 1.00 ± 0.55 log and the “Benefit from the synergistic combination over expected additive reduction” value (C. acnes ATCC 6919 [2]; light plus 0.002% 4-hexylresorcinol versus arithmetic sum) was 100 fold. For the same compound, the “Ave. Log Reduction ± S.D., arithmetic sum (expected additive)” value (C. acnes ATCC 6919 [2]) was 2.83 log and the “Ave. Log Reduction ± S.D., arithmetic sum (expected additive)” value (C. acnes ATCC 6919 [2]; listed as HR) was 2.83 ± 1.08 log.

— patent US10537534B1, “Compositions and methods for treating skin conditions using visible light and resorcinols” (Johnson & Johnson Consumer Inc., priority 2019, dated 2020)
